Entries after “also recorded” stand apart in the source; their conditions may differ.
What was measured:
SRS-A [1] = assay: Test Procedure 2: inhibition of SRS-A-induced bronchoconstriction in anesthetized guinea pigs (Konzett-Rossler); format: in vivo, guinea pig; details: for % Inhibition (duration of anti-SRS-A effect) / Ratio of Peak Response to SRS-A in Paired Med./Co. Guinea Pigs ± S.E.: 10 mg/kg p.o.
Text: SRS-A was harvested as described in Test Procedure 1 described hereinabove. A slightly modified Konzett-Rossler preparation [Arch. […] Guinea pigs weighing 350 to 450 g were anesthetized ip with 1.5 g/kg urethane. The jugular vein and trachea were cannulated and the guinea pigs were artificially respired at a rate of 40 strokes/minute. […] A side arm of the inflationary air cannula was connected to a pressure transducer and resistance to pulmonary inflation continuously recorded. […] Studies with SRS-A commenced after each guinea pig had attained maximum bronchoconstrictor response to histamine. […] The effects of the test compounds were studied by measuring SRS-A-induced bronchoconstriction side-by-side in two guinea pigs, one medicated and one control. Subsequent medicated/control pairs were alternated on two respiratory pumps. In this manner, the gradual decomposition of SRS-A and differences between the two pump/recorder systems, if any, were controlled. The dose (volume) of each sample of SRS-A was adjusted in each pair to keep the peaks of increases in bronchial resistance in control guinea pigs within 13 to 40 mmHg. Bronchoconstriction following injection of SRS-A was measured two ways; as the peak increase in resistance to inflation and, in view of the occasional irregular bronchoconstriction response curves following injection of SRS-A, as the sum of increases in bronchoconstriction over 10 minutes (pressure/time units). Pressure/time units were calculated by measuring the area under the curve of inflationary resistance where ordinates were set at 10 mm of pen excursion/10 mm pressure Hg and the abscissas were set at 15 mm of paper travel/minute. […] SRS-A-induced bronchoconstriction (increase in resistance) was calculated as the area under the curve and over the normal base line of resistance to inflation. […] The effects of the test compounds upon SRS-A-induced bronchoconstriction were expressed as ratios of the peaks and as ratios of the pressure/time units between the paired medicated and control guinea pigs. The consistency of paired responses to SRS-A in nonmedicated guinea pigs was determined in the same manner, by alternating the ratios of the results of guinea pigs on pumps one and two. […] SRS-A was injected 5 minutes after these latter injections. Compound b was prepared as a solution in 2% N-methylglucamine and used within 3 hours. […] Control guinea pigs received injections of the respective solvent vehicles. In order to compare the activities of compound b following iv and po routes of administration, compound b was also administered orally. […] Control guinea pigs received 2% N-methylglucamine. Fifteen minutes later, the guinea pigs were anesthetized, cannulated, and prepared for injections of SRS-A as described. The procedure was timed so that SRS-A was injected 1 hour after the oral administration of compound b. In a separate experiment, using the same methodology, the duration anti-SRS-A activity of compound b was determined after oral administration. Compound b was finely ground in a tissue homogenizer and prepared as a suspension in 0.5% gum tragacanth. A dose of 10 mg/kg was administered and anti-SRS-A effect studied at 1, 4 and 7 hr postmedication. The ratios of peak increases in intratracheal pressure between paired medicated and control guinea pigs was used to calculate percent inhibition.

histamine = assay: Test Procedure 5: histamine-induced bronchoconstriction in anesthetized guinea pigs; format: in vivo, guinea pig
Procedure: Guinea pigs weighing 350 to 400 g were anesthetized ip with 1.5 g/kg urethane and prepared for measurements of resistance to pulmonary inflation using a slightly modified Konzett-Rossler method (see Test Procedure 2). […] The experimental procedure was started after each guinea pig had attained its maximal, repeatable response to histamine. […] Artificial respiration was resumed 25 minutes later. Thirty minutes after the administration of one of the drugs, tne guinea pigs received two of three injections of histamine at 3-minute intervals. The average of these histamine responses (increases in resistance) was expressed as percent of the maximal histamine response obtained with the same guinea pig before the administration of the drug. In addition to sc administration, compound b was also studied following po administration. In these studies, the time interval between po medication and the secondary histamine challenges was increased to 45 minutes.

acetylcholine = assay: Test Procedure 7: acetylcholine-induced bronchoconstriction in anesthetized guinea pigs; format: in vivo, guinea pig; details: 100 mg/kg p.o.
Procedure: Guinea pigs, weighing 250-350 g were anesthetized with 1.5 g/kg i.p. of urethane and prepared for measurements of resistance to pulmonary inflation using a slightly modified Konzett-Rossler preparation (see Test Procedure 2). Histamine phosphate (5 μg/kg as base) was injected four times at 5 minute intervals in order to ascertain that the maximum bronchoconstrictor responsiveness has been obtained. Acetylcholine was injected intravenously at […] 5 minutes following the last injection of histamine and the increase in intratracheal pressure was recorded. Compound b or aminophylline (100 mg/kg p.o.) or the control vehicle were administered to five guinea pigs each, 1 hour before the injection of acetylcholine (1/2 hour before the anesthesia).

SRS-A [2] = assay: Test Procedure 3: SRS-A-induced increase in resistance to pulmonary inflation in anesthetized cats; format: in vivo, cat
[3] = suspension, 1 hr before test, P 0.01
[4] = suspension, 4 hr before test, P 0.01
[5] = p.o. 3.3 mg/kg, solution, 1 hour
[6] = p.o. 10 mg/kg, solution, 1 hour

## COc1ccc2c(c1)c1c(n2C(=O)c2ccccc2)CCC(C(=O)O)C1 (centres unmarked) [Compound b, 9-benzoyl-6-methoxy-1,2,3,4-tetrahydrocarbazole-3-carboxylic acid]
SRS-A [1]; [3]
  % Inhibition (duration of anti-SRS-A effect): 81%
  Ratio of Peak Response to SRS-A in Paired Med./Co. Guinea Pigs ± S.E.: 0.19 ± 0.05
SRS-A [1]; [4]
  % Inhibition (duration of anti-SRS-A effect): 68%
  Ratio of Peak Response to SRS-A in Paired Med./Co. Guinea Pigs ± S.E.: 0.32 ± 0.08
SRS-A [1]; suspension, 7 hr before test
  % Inhibition (duration of anti-SRS-A effect): 0%
  Ratio of Peak Response to SRS-A in Paired Med./Co. Guinea Pigs ± S.E.: 1.00 ± 0.15
SRS-A [1]; Cavia porcellus, intravenous, read-out: minimal active dose
  minimal effective dose: 1 mg/kg
SRS-A [1]; guinea pigs
  effect against SRS-A-induced bronchoconstriction (activity profile): effectiveness
SRS-A [1]; i.v. 0.3 mg/kg
  % Inhibition (sum of increase in resistance over 10 min): 0%
  Sum of Increase in Resist. to Infl. over 10 min, Avg Ratio Med/Co. Pairs ± S.E.: 1.18 ± .33
SRS-A [1]; i.v. 0.33 mg/kg
  % Inhibition (peak increase in resistance): 0%
  Peak Increase in Resistance to Inflation, Avg Ratio of Med/Co. Pairs ± S.E.: 1.10 ± .19
SRS-A [1]; i.v. 1.0 mg/kg
  % Inhibition (peak increase in resistance): 54%
  % Inhibition (sum of increase in resistance over 10 min): 45%
  Peak Increase in Resistance to Inflation, Avg Ratio of Med/Co. Pairs ± S.E.: 0.44 ± .07
  Sum of Increase in Resist. to Infl. over 10 min, Avg Ratio Med/Co. Pairs ± S.E.: 0.55 ± .09
SRS-A [1]; i.v. 3.3 mg/kg
  % Inhibition (peak increase in resistance): 89%
  % Inhibition (sum of increase in resistance over 10 min): 83%
  Peak Increase in Resistance to Inflation, Avg Ratio of Med/Co. Pairs ± S.E.: 0.11 ± .04
  Sum of Increase in Resist. to Infl. over 10 min, Avg Ratio Med/Co. Pairs ± S.E.: 0.17 ± .05
SRS-A [1]; i.v. 10 mg/kg
  % Inhibition (peak increase in resistance): 95%
  % Inhibition (sum of increase in resistance over 10 min): 86%
  Peak Increase in Resistance to Inflation, Avg Ratio of Med/Co. Pairs ± S.E.: 0.05 ± .03
  Sum of Increase in Resist. to Infl. over 10 min, Avg Ratio Med/Co. Pairs ± S.E.: 0.14 ± .04
SRS-A [1]; intravenous
  inhibition of SRS-A-induced increases in resistance to inflation: inhibited SRS-A-induced increases in resistance to inflation in a dose-related manner
SRS-A [1]; intravenous, calculated by peaks of increases in resistance
  potency relative to phenylbutazone, times more potent (95% confidence limits): 3.8 (95% confidence limits of 1.8 to 7.8) times
SRS-A [1]; oral solution in 2% N-methylglucamine, suggested by activity ratio
  absorption from the GI tract: readily absorbed from the GI tract
SRS-A [1]; oral solutions
  inhibition of SRS-A-induced bronchoconstriction: dose-related inhibition
SRS-A [1]; [5]
  % Inhibition (peak increase in resistance): 36%
  % Inhibition (sum of increase in resistance over 10 min): 47%
  Peak Increase in Resistance to Inflation, Avg Ratio of Med/Co. Pairs ± S.E.: 0.64 ± .13
  Sum of Increase in Resist. to Infl. over 10 min, Avg Ratio Med/Co. Pairs ± S.E.: 0.53 ± .13
SRS-A [1]; [6]
  % Inhibition (peak increase in resistance): 87%
  % Inhibition (sum of increase in resistance over 10 min): 92%
  Sum of Increase in Resist. to Infl. over 10 min, Avg Ratio Med/Co. Pairs ± S.E.: 0.08 ± .03
SRS-A [1]; single oral dose 10 mg/kg, suspension
  duration of inhibition of SRS-A-induced bronchoconstriction: 4 h
SRS-A [1]; solution in 2% N-methylglucamine
  iv/po activity ratio (po AED50/iv AED50): 2.6
histamine; guinea pigs
  effect against histamine-induced bronchoconstriction (activity profile): ineffectiveness
histamine; oral 100 mg/kg
  inhibition of histamine-induced bronchoconstriction: no significant inhibition
histamine; po 100 mg/kg
  % Inhibition: 16%
  Histamine-Response in % of Premed. Histamine Response: 84 ± 26%
histamine; sc 100 mg/kg
  % Inhibition: 8%
  Histamine-Response in % of Premed. Histamine Response: 92 ± 2%
  inhibition of histamine-induced bronchoconstriction: no significant inhibition
acetylcholine
  % Inhibition: 9%
  Peak Increase in Intracheal Pressure, mm Hg: 21 ± 4 mm Hg
  effect against acetylcholine-induced bronchoconstriction: inactive; also recorded: ineffectiveness
SRS-A [2]; intravenous 0.01 mg/kg
  % Inhibition: 30%
SRS-A [2]; intravenous 0.1 mg/kg
  Max. Increase in Resistance to Pulm. Inflation, mm Hg ± S.E.: 1.6 ± 0.5 mm Hg
SRS-A [2]; intravenous 1.0 mg/kg
  % Inhibition: 98%
  increase in resistance in one of seven cats: 0.5 mm Hg
SRS-A [2]; oral 0.33 mg/kg
  % Inhibition: 25%
  Max. Increase in Resistance to Pulm. Inflation, mm Hg ± S.E.: 3.1 ± 0.3 mm Hg
SRS-A [2]; oral 1.0 mg/kg
  % Inhibition: 49%
  Max. Increase in Resistance to Pulm. Inflation, mm Hg ± S.E.: 2.0 ± 0.8 mm Hg
SRS-A [2]; oral 3.3 mg/kg
  % Inhibition: 85%
  Max. Increase in Resistance to Pulm. Inflation, mm Hg ± S.E.: 0.6 ± 0.5 mm Hg
SRS-A [2]; oral 10.0 mg/kg
  % Inhibition: 98%
  Max. Increase in Resistance to Pulm. Inflation, mm Hg ± S.E.: 0.1 ± 0.1 mm Hg
